This is an account of results in patent US10596115B2, “Pharmaceutical composition for the treatment of diminution of bone tissue” (Council of Scientific & Industrial Research, priority 2013, dated 2020).

Where a SMILES comes first, the peptide text is derived from it. The star is where a group is joined. Cbz = O=C(OCc1ccccc1)*; OtBu = CC(C)(C)O*

The target in one data set is 20 S proteasome (Rattus norvegicus, UniProt P28075). Kind of data set: 20 S proteasome activity assay in calvarial osteoblast cells. The conditions noted are these: for inhibition of 20 S proteasomal activity: calvarial osteoblast cells.
The subject of data set [1] is Mice Calvarial osteoblasts (MCOs). Kind of data set: Mineralization assay (Alizarin red-S). The format is cell-based. The conditions noted are these: 10 nM, 21 days, vs control group. As to the method:
Mineralization assay was carried out to assess the mineralizing ability and thus bone formation of osteoblasts cells. […] At the end of the experiment, the cells were washed with PBS and fixed with paraformaldehyde (4%) in PBS for 15 minutes. Alizarin red-S stain was used for staining mineralized nodules, followed by extraction of the stain using 10% acetic acid and 10% ammonium hydroxide for colorimetric quantification at 405 nm.

The test system of data set [2] is Mice calverial osteoblast. The data set can be described thus: Apoptosis assay (Annexin V/PI, FACS) in serum deprived MCOs. The format is cell-based. As to conditions: 10 nM, 24 h. As to the method:
Annexin V/PI staining for fluorescence-activated cell sorting (FACS) analysis was carried out using Calbiochem Annexin V-FITC Apoptosis Detection Kit (Calbiochem, USA) according to manufacturer's instructions.

For data set [3] the following is noted: Mundy GR et al, 2005; cited from earlier work.
Another data set relates to Smads. The conditions noted are these: Ito y et al, 2011; cited from earlier work.
In the next data set the test system is uterus of OVx mice. The data set can be described thus: Estrogenicity studies (uterine weight). The format is in vivo. The conditions noted are these: all doses. As to the method:
The uterus of each mouse was weighed and then fixed in 4% paraformaldehyde. A middle segment of each uterus was dehydrated in ascending grades of isopropanol, cleared in xylene and sections of about 5 μm thickness was prepared. Haematoxylin and eosin staining was done of 5 μm transverse sections and representative images were captured. Leica Qwin-Semiautomatic Image Analysis software (Leica Microsystems GmbH) was used to measure total uterine area, luminal area and luminal epithelial height.

Data set [4] deals with Mice Calvarial osteoblasts (MCOs). The data set can be described thus: Quantitative real time PCR of osteogenic genes in MCOs. The format is cell-based. The conditions noted are these: 10 nM. As to the method:
Cells were homogenized using 1 ml of TRIzol reagent (Invitrogen, Carlsbad, Calif., USA), and total RNA was extracted according to the manufacturer's protocol. cDNA was synthesized using RevertAid™ First Strand cDNA synthesis kit (#K1621 Fermentas, Canada) from 1 μg of total RNA. Quantitative real time PCR amplifications were performed in The LightCycler® 480 Real-Time PCR System (Roche Diagnostics, USA) using LightCycler SYBR Green (Roche Diagnostics, USA) according to the manufacturer's instruction. The sequences of primer sets for Smurf1, Smurf2, RunX2, BMP-2, alkaline phosphatase (ALP), osteocalcin (OCN), Collagen I (Coll) and GAPDH mRNAs, target sites on mRNAs and product sizes by PCR are shown in FIG. 6. The quantity of each sample was normalized using the CT (threshold cycle) value obtained for the GAPDH mRNA amplifications.

Data set [5] deals with serum osteocalcin in OVx mice. The data set can be described thus: Bone turnover marker, serum osteocalcin EIA. The format is in vivo. As to conditions: 60 days, vs OVx+vehicle. An excerpt: Rat-MID™ Osteocalcin EIA (Immunodiagnostic, UK) performed using serum from treated and vehicle groups using manufacturer's protocol as provided in the kit.
The test system of data set [6] is drill-hole injury in femur of Sham and OVx Balb/c mice. Kind of data set: Fracture healing drill-hole study. The format is in vivo. An excerpt:
Sixty adult Balb/c mice (18-20 g each) were taken and divided into six groups of […] for the study. Each group included 12 animals per group. […] Mice were left for 8 weeks for the OVx mice to develop osteopenia. After 8 weeks, drill-hole injury was created in both sham and OVx groups. In mid femur region the front skin was incised straight and longitudinally 1 cm in length under anesthetic condition. After splitting the muscle, periosteum was stripped to expose the femoral bone surface. A drill-hole injury was made, 1 cm above the knee joint by inserting a drill bit with a diameter of 0.1 mm in the anterior portion of the diaphysis of the bilateral femurs. […] Each animal received intraperitoneal administration of fluorochrome calcein (20 mg·kg^−1) 24 h before autopsy. After 21 days of treatment as described above, all mice were euthanized and autopsied to collect their femurs for the measurement of bone micro architectural parameters at the drill hole site. Bones were embedded in acrylic material and 50 μm sections were made using an Isomet BoneCutter (Buehler, Lake Bluff, Ill. USA) and photographs were taken under confocal microscope LSM 510 Meta, Carl Zeiss, USA) aided with appropriate filters. The intensity of calcein binding, which is an indicator of the amount of new mineral deposition, was calculated using Carl Zeiss A M 4.2 image-analysis software.

The subject of data set [7] is Ovariectomized (OVx) Mice. Kind of data set: In vivo efficacy of WFA on ovariectomized (OVx) mice, μCT. Further details: species or system Balb/c mice. The conditions noted are these: doses 1, 5 and 10. As to the method: The intraperitoneal dose for iPTH (40 μg·kg^-1 for 3 days/week) used in this study as known anabolic agent. […] For dynamic histomorphometry measurements each animal was administered intraperitoneally with fluorochromes tetracycline (20 mg·kg^-1) on day 30 […] and calcein (20 mg·kg^-1) on day 60 (8 weeks) after the commencement of various treatments. After 8 weeks of treatment, all mice were euthanized and autopsied to collect bones (i.e., tibias and femurs) for measurement of bone parameter. […] BMCs were cultured in bone marrow differentiation medium to induce mineralization for 18 days. Mineralization was quantified as described. Alizarin red S stain was used for staining mineralized nodules, followed by extraction of the stain for quantification. […] The plasma samples were analyzed by HPLC according to reported method with slight modification. Sky Scan 1076 μCT scanner (Aartselaar, Belgium) was used to carryout μCT scanning of excised bones as described before. The bone samples were scanned at a resolution of 9 μm and reconstruction was done using the Sky Scan Nrecon software. The X-ray source was set at 50 kV and […], with a pixel size of 9 μm. A hundred projections were acquired over an angul arrange of 180°. […] Trabecular thickness (Tb.Th) and structure mode index (SMI) was calculated according to the method of Hildebrand and Ruegsegger. […]

In data set [8] the test system is Mice Calvarial osteoblasts (MCOs). Kind of data set: Alkaline phosphatase (ALP) assay in mice calvarial osteoblasts. The format is cell-based. As to conditions: for ALP production / ALP activity compared with control: osteoblast differentiation medium, 1 pM to 1 μM; for dose most effective in stimulating ALP activity: dose range 1 pM to 1 μM. As to the method:
For each experiment, 1 to 2 day old […] were used to harvest 20 to 35 calvaria at room temperature (25° C.). Briefly, individual calvaria were surgically isolated from the skull, the sutures were segregated, and the adherent tissue material was cleaned by gentle scrapping. As described previously, the pooled calvarias were kept for repeated digestion (15 minutes/digestion) with 0.05% trypsin and 0.1% collagenase P to release the cells. First digestion was discarded and cells were collected from the next four digestions. These cells were cultured in a modified essential medium (a-MEM) containing 10% fetal calf serum (FCS) and 1% penicillin/streptomycin (complete growth medium). Cultures of MCOs were allowed to reach 80% confluence for the experiments.
For the measurement of ALP activity, MCOs at approximately 80% confluence were trypsinized, and 2×10^3 cells/well were seeded onto 96-well plates. […] At the end of incubation period, total ALP activity was measured using p-nitrophenylphosphate (PNPP) as substrate, and absorbance was read at 405 nm.

Data set [9] has as its system Mice primary osteoblast cells. The data set can be described thus: Cell proliferation assay (direct cell count and BrdU). The format is cell-based. As to conditions: 24 h. As to the method: Mice primary osteoblast cells were plated at a density of 2.5×10^5 cells/ml/well in 12 well plates at 37° C. […] The cells were trypsinized and viable cells were counted with a hemocytometer using trypan blue dye exclusion. Cell counts were performed in duplicate and repeated in three cultures. […] Cell proliferation was determined using BrdU ELISA (from Calbiochem, Darmstadt, Germany) using manufacturer's instructions. For the last 3h of the 24 h stimulation, the, cells were trypsinized and 2000 cells/well were seeded in a-MEM supplemented with 10% fetal bovine serum, and the cells were pulsed with BrdU. Absorbance at dual wavelength of 450-540 nm was measured with a microplate reader.

The next data set relates to Mouse bone marrow cells. The data set can be described thus: Osteoclast culture, real-time expression of TRAP and RANK. The format is cell-based. As to conditions: bone marrow cultures with MCSF and RANKL, 6 days, vs control vehicle. As to the method: In vitro osteoclastogenesis was performed using standard protocol. Mouse bone marrow cells were flushed from femur using alpha-MEM. Cells were seeded in flask overnight in Osteoclast medium (alpha MEM, 10% FCS, antibiotic, EBSS, 10 ng/ml MCSF). […] The medium was replaced after every 48 hours. After 6 days of culture, the cells were washed with PBS and then fixed in 4% paraformaldehyde or used for RNA extraction using TRIZOL for analysis of TRAP, RANK mRNA levels by real-time PCR. Fixed cells were followed by TRAP staining using the standardized protocol.

For the molecule `CC(C)C[C@H](NC(=O)[C@H](Cc1ccccc1)NC(=O)c1cnccn1)B(O)O` [Bzb, Bortezomib, reference compound], the “inhibition of 20 S proteasomal activity” value on 20 S proteasome is on record as “comparable to Bzb”. Also, in data set [1], the “mineralization (Alizarin-S dye extraction)” value is recorded as “comparable to Bzb treatment”. The “apoptosis of serum deprived MCOs” value in data set [2] (0.5% FBS) is recorded as “comparable to standard control Bortizomib (Bzb)”.
Turning to `CC[C@H](C)[C@H](NC(=O)[C@H]([C@@H](C)CC)N(C)C(C)=O)C(=O)N[C@H](C(=O)N[C@@H](CC(C)C)C(=O)[C@@]1(C)CO1)[C@@H](C)O` [Epoxomicin], the “Activity: bone volume and bone formation rate” value in data set [3] was “Increases bone”.
As to `CC(=O)N[C@@H](CSC(=O)[C@]1([C@@H](O)C(C)C)NC(=O)[C@H](C)[C@@H]1O)C(=O)O` [Lactacystin, reference compound], the “inhibition of 20 S proteasomal activity” value against 20 S proteasome was “significantly inhibits the 20 S proteasomal activity”. The “Activity: activity of Smads (in vitro)” value in the data set on Smads is reported as “Increases”.
Consider `CC[C@H](C)[C@H](NC(=O)OCc1ccccc1)C(=O)N[C@@H](CCC(=O)OC(C)(C)C)C(=O)N[C@@H](C)C(=O)N[C@H](C=O)CC(C)C` [PSI] (Cbz-IE(OtBu)AL-aldehyde), for which the “Activity: bone volume and bone formation rate” value in data set [3] was “Increases bone”.
Take `CC1=C(CO)C(=O)O[C@@H]([C@@H](C)[C@H]2CC[C@H]3[C@@H]4C[C@H]5O[C@]56[C@@H](O)C=CC(=O)[C@]6(C)[C@H]4CC[C@]23C)C1` [WFA, Withaferin A]: the uterine weight entry in the data set on uterus of OVx mice is “uterine weight comparable to OVx group”. In addition, the “mRNA expression of collagen I” value in [4] is “stimulated mRNA expression of collagen I”. In data set [4] (normalized to GAPDH), the “expression of osteogenic genes RunX2, OCN and Col I” value is “increased expression of RunX2, OCN and Col I”. In addition, on 20 S proteasome (10 nM), the “earliest time of inhibition of proteasomal 20 S subunit activity” value is given as 3 h. On 20 S proteasome (10 nM, at 6 h, compared with positive control), the “maximum inhibition of proteasomal 20 S subunit activity” value is recorded as 40-50%. Also, the “mineralization (Alizarin-S dye extraction)” value in [1] is listed as “significant increase in mineralization”. Further, in data set [5], the “serum osteocalcin (OCN) levels” value is “significant reduction in the levels of OCN”. Further, the “callus mineralization / bridging of defect” value in data set [6] (5 mg kg-1 d-1, after day 11 post drilling) was “predominantly occupied mineralized callus, and the defect region was partially bridged”; in data set [6] (10 mg kg-1 d-1, compared with 5 mg kg-1 d-1), “more increased mineralized callus within the intra medulla region to be remodeled to completely bridge the defect”. In data set [6] (5 and 10 mg kg-1 d-1, 21 days, vs vehicle), the “mineral deposition (intensity of calcein labeling in the drill hole)” value is given as “increased mineral deposition”. Also, the “mineral deposition in OVx mice” value in [6] (OVx mice, 5 and 10 mg kg-1 d-1, vs OVx vehicle) was “increased mineral deposition in OVx mice”. Besides, the “most effective dose (BV/TV, inter-dose comparison)” value in [7] is 10 mg/kg/day. The “ALP activity compared to Bortizomib” value in [8] (10 nM, 48 h) was around 3 fold. Besides, the “ALP production / ALP activity compared with control” value in data set [8] (48 h) is listed as “significantly increased ALP production”. For the same molecule, the “dose most effective in stimulating ALP activity” value (“dose most effective” for short) in data set [8] turned out to be 10 nM. For the same molecule, the “concentration that maximally stimulated MCO proliferation” value in [9] is 10 nM. Moreover, the “osteoblast proliferation (direct cell count and BrdU incorporation)” value in data set [9] (vs control vehicle set as 100) was “concentration dependently stimulated osteoblast proliferation”. In addition, in data set [2] (serum deprived (0.5% FBS) MCOs), the “apoptotic cells (early and late)” value turned out to be 3%. For the same molecule, in the data set on Mouse bone marrow cells, the “mRNA levels of TRAP and RANK” value was “significantly reduced mRNA levels of TRAP and RANK”.
On to `CC1=C(C)C(=O)O[C@@H]([C@@H](C)[C@@]2(O)CC[C@H]3[C@@H]4[C@@H]5O[C@@H]5[C@@]5(O)CC=CC(=O)[C@]5(C)[C@H]4CC[C@@]32C)C1` [WN, Withanone], for which the “mRNA expression of collagen I” value in data set [4] is “stimulated mRNA expression of collagen I”. The “ALP production / ALP activity compared with control” value in data set [8] (48 h) is listed as “did not stimulate ALP activity significantly”. Further, the “dose most effective” value in [8] is 10 nM.
Consider `CC1=C(C)C(=O)O[C@@H]([C@](C)(O)[C@H]2CC[C@H]3[C@@H]4[C@@H]5O[C@@H]5[C@@]5(O)CC=CC(=O)[C@]5(C)[C@H]4CC[C@]23C)C1` [WNA, Withanolide A], for which the “mRNA expression of collagen I” value in [4] is “stimulated mRNA expression of collagen I”. In addition, the “ALP production / ALP activity compared with control” value in data set [8] (48 h) is reported as “significantly increased ALP production”. The “dose most effective” value in data set [8] worked out at 10 nM.
